Measured values: PubChem BioAssay (NCI)
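Exposure lasted 48 hours, with cells grown in 96-well plates and compounds tested at five concentrations. Abbreviation: GI50, concentration required for 50% inhibition of growth. TGI marks complete inhibition of growth.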

How the values were obtained:
Experiment in all cases: DTP human tumour cell line panel, 48 h
UACC-62 melanoma = test system: UACC-62 melanoma
HL-60(TB) leukemia = test system: HL-60(TB) leukemia
NCI-H226 lung = test system: NCI-H226 lung
PC-3 prostate = test system: PC-3 prostate
HCT-15 colon = test system: HCT-15 colon
T-47D breast = test system: T-47D breast
SK-OV-3 ovarian = test system: SK-OV-3 ovarian
UO-31 renal = test system: UO-31 renal
HT29 colon = test system: HT29 colon
EKVX NSCLC = test system: EKVX NSCLC

| Compound | TGI (UACC-62 melanoma) [µM] | TGI (HL-60(TB) leukemia) [µM] | TGI (NCI-H226 lung) [µM] | TGI (PC-3 prostate) [µM] | TGI (HCT-15 colon) [µM] | TGI (T-47D breast) [µM] | TGI (SK-OV-3 ovarian) [µM] | TGI (UO-31 renal) [µM] | TGI (HT29 colon) [µM] | TGI (EKVX NSCLC) [µM] | GI50 (HL-60(TB) leukemia) [nM] |
| --- | --- | --- | --- | --- | --- | --- | --- | --- | --- | --- | --- |
| CC1(C)N=C(N)N=C(N)N1c1cccc(OCc2cccc(N)c2)c1 | > 100 | 47.5 | > 100 | > 100 | > 100 | > 100 | > 100 | > 100 | > 100 | > 100 | – |
| COc1cc2[nH]c(=O)c3cc(-c4ccccc4)cc4c(Cl)nc(c1OC)c2c43 | 34.6 | 12.3 | > 100 | > 100 | > 75.8 | > 100 | > 73.9 | > 65.1 | > 60.7 | 64 | – |
| Cc1nnc2n1-c1ccccc1N(Cc1ccccc1)CC2 | > 100 | 60 | > 100 | > 100 | > 100 | > 100 | > 100 | > 100 | > 100 | > 100 | – |
| Cn1nc2c(c1N)Cc1c(nn(C)c1N)-c1ccccc1-2 | > 100 | > 100 | > 100 | > 100 | > 100 | > 100 | > 100 | > 100 | > 100 | > 100 | – |
| Cc1cc(OCc2nnc3sc(NC(=O)c4ccccc4)nn23)ccc1Cl | > 100 | > 100 | > 100 | > 100 | > 100 | > 100 | > 100 | 35.2 | > 100 | 89.7 | – |
| COc1cc2c3c(cc(Cl)nc3c1OC)C(=O)C(=O)N2 | 18.1 | 3.56 | 41.5 | 27.6 | 40.8 | > 100 | 33.3 | 26.7 | 41.4 | 11.9 | – |
| CCOC(=O)/C=C(/C=C\COC1CCCCO1)c1ccccc1 (stereo unspecified) | 88.6 | 44.2 | > 100 | > 100 | > 100 | 72.3 | > 100 | > 100 | 29.2 | > 100 | – |
| C=C1C[C@@H]2CC[C@@]34C[C@H]5O[C@H]6[C@@H](O3)[C@H]3O[C@H](CC[C@@H]3O[C@H]6[C@H]5O4)CC(=O)C[C@@H]3[C@@H](OC)[C@@H](C[C@H](O)CN)O[C@H]3C[C@H]3O[C@@H](CC[C@@H]1O2)C[C@@H](C)C3=C | > 1 | 0.00466 | 0.00433 | > 0.12 | > 0.76 | > 1 | 0.286 | > 1 | 0.0133 | 0.273 | 0.307 |
| Cc1cc(S(=O)(=O)Nc2n[nH]c(Nc3ccccc3)n2)c(SCC(=O)O)cc1Cl | > 100 | > 100 | > 100 | > 100 | > 100 | > 100 | > 100 | > 100 | > 100 | > 100 | – |
| CCC(=O)Nc1ccc(NS(=O)(=O)c2ccc(Cl)cc2)cc1 | > 100 | > 100 | > 100 | > 100 | > 100 | > 100 | > 100 | > 100 | > 100 | > 100 | – |
| O=CN1CCN(C(=O)c2ccco2)C1=S | 20.7 | 8.94 | 54.8 | 23 | 25.7 | 19.3 | 70.8 | 13.8 | 26.2 | 41.3 | – |
| COc1cc(OC)cc(Oc2nc3cc(F)c(F)cc3nc2-c2ccccc2)c1 | > 100 | > 100 | > 100 | > 100 | > 100 | > 100 | > 100 | > 100 | > 100 | > 100 | – |
| CCOc1ccc(N=Nc2ccc3cc(/C(C)=N/NC(=O)/C(C#N)=C\c4ccc(N(CCC#N)CCC#N)cc4)c(=O)oc3c2)cc1 | > 10 | > 10 | > 10 | > 10 | > 10 | > 10 | > 10 | > 10 | > 10 | > 10 | – |
| Cc1ccc(S(=O)(=O)c2c(O)c3ccc(O)c(C)c3oc2=O)cc1 | > 100 | > 100 | > 100 | > 100 | > 100 | > 100 | > 100 | > 100 | > 100 | > 100 | – |
| O=C(/C=C\Nc1ccccc1O)C(F)(F)F | > 100 | 67.8 | > 100 | > 100 | > 100 | > 100 | > 100 | > 100 | > 100 | > 100 | – |
| COC(=O)C1=C(C)NC(C)=C(C(=O)OC)C1c1cccc(N=O)c1 | 27.6 | 25.8 | 37.8 | 31.7 | 32.5 | 40.4 | 44.3 | 21 | 34 | 36 | – |
| O=[N+]([O-])/C(Cl)=C(/C(Cl)=C(Cl)Cl)N1CCCCC1 | 17.1 | 4.83 | 34.1 | 43.8 | 19.1 | 34 | > 100 | 25.7 | 29.5 | 39.7 | – |
